{"source": "patent US10265317B2", "about": "“Combination of creatine, an omega-3 fatty acid, and citicoline” (University of Utah Research Foundation, priority 2014, dated 2019)", "key": {"[1]": {"test_system": "females between 40-60 years of age", "assay": "Hamilton Anxiety Rating Scale (HAM-A), clinical study", "format": "in vivo, human", "settings": "Visit 2, higher score indicates more severe symptoms", "experimental": "(§1) Approval for the study was obtained from the University of Utah Institutional Review Board (IRB). Informed consent consisted of written assent from participants. The study was conducted under U.S. Food and Drug Administration (FDA) Investigational New Drug Application #104,586. An external Data Safety and Monitoring Board vested with authority to halt the trial was established, and the study was conducted in accordance of the principles of Good Clinical Practice (GCP).\n(§2) Participants were recruited through self-referral and IRB-approved advertising. Consecutive patients who met inclusion criteria were enrolled. Inclusion criteria included the following: females between 40-60 years of age. […]\n(§3) At each study visit, the following rating scales were administered: the Hamilton Anxiety Rating Scale (HAM A) (Hamilton, 1969) and the Hamilton Depression Rating Scale (HAM D) (Hamilton, 1960), the California Verbal Learning Test (Delis et al., 1987) and the Rey Osterrieth Figure Test (Bennett-Levy, 1984). Adverse events we recorded at each study visit. […]"}, "[2]": {"test_system": "females between 40-60 years of age", "assay": "Hamilton Depression Rating Scale (HAM-D), clinical study", "format": "in vivo, human", "settings": "Visit 2, higher score indicates more severe symptoms", "experimental": "as §1, §2, §3"}, "[3]": {"test_system": "frontal lobe levels of both phosphocreatine and adenosine triphosphate", "settings": "chronic oral administration; cited from earlier work"}}}
{"molecule": "C[N+](C)(C)CCOP(=O)(O)OP(=O)([O-])OC[C@H]1O[C@@H](n2ccc(N)nc2=O)[C@H](O)[C@@H]1O", "note": "[CDP-Choline, cytidine-5′-diphosphocholine]", "values": [{"measurement": "HAM-A Mean", "setting": "[1]; 250 mg CDP-Choline", "value": 1.80}, {"measurement": "HAM-A Mean", "setting": "[1]; 500 mg CDP-Choline", "value": 1.35}, {"measurement": "HAM-D Mean", "setting": "[2]; 250 mg CDP-Choline", "value": 1.60}, {"measurement": "HAM-D Mean", "setting": "[2]; 500 mg CDP-Choline", "value": 1.35}, {"measurement": "frontal lobe levels of phosphocreatine and adenosine triphosphate", "setting": "[3]", "value": "increase"}]}
